Counter-ions that a name gives are not always drawn.
Legend:
planktonic MRSA = assay: Minimum inhibitory concentration (MIC) to planktonic MRSA; type: cell-based, Methicillin-resistant S. aureus (MRSA) USA300; details: Staphylococcus aureus; planktonic MRSA cells, 24 hours, OD600
Experimental: Methicillin-resistant S. aureus (MRSA) USA300 strain was used in this study. The planktonic bacteria were cultured in LB medium. Vancomycin hydrochloride (Apexbio Technology LLC, Houston, Tex., USA) and daptomycin (Combi-Blocks, San Diago Calif., USA) were used to treat MRSA biofilm. The minimum inhibitory concentration (MIC) of vancomycin hydrochloride to planktonic MRSA cells was determined as 1.2 μg mL^−1 (see FIG. 17B), which was in consistent with the results reported previously.
MRSA bacteria was cultured in LB media in a 37° C. water shaking bath overnight to reach the concentration of 1×10^8 CFU mL^−1. Then, they were diluted to 10^5 CFU mL^−1 in 96-well plates by adding different concentrations of VAN solutions. After incubation for 24 hours without shaking, MIC of VAN to inhibit MRSA growth was measured by a Biotek Synergy H1 hybrid multi-mode microplate reader (BioTek, Winooski, Vt., USA) at OD600. To evaluate the killing time of VAN to bacteria in stationary phase (1×10^8 CFU mL^−1), VAN powder was added to bacteria solution to obtain concentration of 1 mg mL^−1, 3 mg mL^−1, 5 mg mL^−1, and 10 mg mL^−1, respectively, while remaining MRSA concentration of 1×10^8 CFU mL^−1. After incubation in a 37° C. water bath for 1 day, 2 days, 3 days and 4 days, the CFU of MRSA cells was tested by the standard plate spread counting assay, respectively. […]

MRSA biofilm = details: cited from earlier work

For `CN[C@H](CC(C)C)C(=O)N[C@H]1C(=O)N[C@@H](CC(N)=O)C(=O)N[C@H]2C(=O)N[C@H]3C(=O)N[C@H](C(=O)N[C@H](C(=O)O)c4cc(O)cc(O)c4-c4cc3ccc4O)[C@H](O)c3ccc(c(Cl)c3)Oc3cc2cc(c3O[C@@H]2O[C@H](CO)[C@@H](O)[C@H](O)[C@H]2O[C@H]2C[C@](C)(N)[C@H](O)[C@H](C)O2)Oc2ccc(cc2Cl)[C@H]1O` [VAN, Vancomycin hydrochloride], the MIC (planktonic MRSA) is given as 1.2 µg/mL and the “minimal biofilm eradication concentration (MBEC)” value (MRSA biofilm) is given as 4 mg/g.

— US20240050735A1, “SYSTEMS AND METHODS FOR TREATING AND INHIBITING WOUND INFECTIONS” (priority 2020, published 2024)
